Experimental data taken from ChEMBL document CHEMBL1153082, “Design and synthesis of N(6)-substituted-4'-thioadenosine-5'-uronamides as potent and selective human A(3) adenosine receptor agonists” (Bioorg Med Chem, 2009).

Tests used:
Adenosine receptor A3 = molecular target: T1, Adenosine receptor A3 (Homo sapiens, UniProt P0DMS8); assay: biochemical
T1 sequence (P0DMS8 whole entry): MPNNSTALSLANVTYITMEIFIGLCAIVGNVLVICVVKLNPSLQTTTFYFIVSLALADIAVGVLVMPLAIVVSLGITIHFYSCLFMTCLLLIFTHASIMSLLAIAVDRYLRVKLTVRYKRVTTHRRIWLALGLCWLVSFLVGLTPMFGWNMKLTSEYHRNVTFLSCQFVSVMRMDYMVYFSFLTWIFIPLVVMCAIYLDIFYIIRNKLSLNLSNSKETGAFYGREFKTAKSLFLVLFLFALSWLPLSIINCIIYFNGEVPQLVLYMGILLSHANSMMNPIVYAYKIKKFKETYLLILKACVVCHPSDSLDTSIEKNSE

Adenosine receptor A2a [1] = molecular target: T2, Adenosine receptor A2a (Homo sapiens, UniProt P29274); assay: Displacement of [3H]CGS21680 from human adenosine A2A receptor expressed in CHO cells at 1 uM; format: cell-based
T2 sequence (P29274 whole entry): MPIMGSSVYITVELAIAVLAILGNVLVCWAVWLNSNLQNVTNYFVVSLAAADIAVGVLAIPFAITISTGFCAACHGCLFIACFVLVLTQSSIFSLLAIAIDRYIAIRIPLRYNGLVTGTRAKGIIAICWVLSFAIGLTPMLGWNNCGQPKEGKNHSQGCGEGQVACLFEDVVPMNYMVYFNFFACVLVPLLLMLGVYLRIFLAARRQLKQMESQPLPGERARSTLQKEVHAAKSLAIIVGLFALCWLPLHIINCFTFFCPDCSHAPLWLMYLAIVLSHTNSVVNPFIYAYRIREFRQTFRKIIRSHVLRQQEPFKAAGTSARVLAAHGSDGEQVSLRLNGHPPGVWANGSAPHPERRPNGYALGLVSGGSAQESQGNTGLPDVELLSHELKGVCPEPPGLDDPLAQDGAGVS

[2] = molecular target: T3, Adenosine receptor A1 (Homo sapiens) (UniProt P30542); assay: Displacement of [3H]R-PIA from human adenosine A1 receptor expressed in CHO cells at 1 uM; format: cell-based
T3 sequence (whole entry): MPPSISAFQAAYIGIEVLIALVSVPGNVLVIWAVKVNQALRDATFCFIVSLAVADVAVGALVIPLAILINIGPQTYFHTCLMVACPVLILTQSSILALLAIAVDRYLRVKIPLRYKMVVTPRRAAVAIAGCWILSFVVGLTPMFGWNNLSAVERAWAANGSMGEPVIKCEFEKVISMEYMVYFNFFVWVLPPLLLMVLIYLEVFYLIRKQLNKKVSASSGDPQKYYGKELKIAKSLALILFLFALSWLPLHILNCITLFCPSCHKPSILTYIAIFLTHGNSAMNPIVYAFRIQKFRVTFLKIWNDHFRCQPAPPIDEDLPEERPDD

Adenosine receptor A2a [3] = molecular target: T2, Adenosine receptor A2a; assay: biochemical
Adenosine receptor A1 [4] = molecular target: T4, Adenosine receptor A1 (Homo sapiens, UniProt P30542); assay: biochemical
T4 sequence (P30542 whole entry): T3 sequence (whole entry)

Adenosine receptor A2a [5] = molecular target: T2, Adenosine receptor A2a
Adenosine receptor A1 [6] = molecular target: T4, Adenosine receptor A1

Row | Ki (Adenosine receptor A3) [nM] | inhibition (Adenosine receptor A2a [1]) [%] | inhibition [2] [%] | Ki (Adenosine receptor A2a [3]) [nM] | Ki (Adenosine receptor A1 [4]) [nM] | Ki (Adenosine receptor A2a [5]) [nM] | Ki (Adenosine receptor A1 [6]) [nM] | Compound
1 | 1200 | 11 | 20 |  |  |  |  | O=C(NCc1cccc2ccccc12)[C@H]1S[C@@H](n2cnc3c(NCc4cccc(I)c4)ncnc32)[C@H](O)[C@@H]1O
2 | 15.6 | 24 | 24 |  |  |  |  | CNc1ncnc2c1ncn2[C@@H]1S[C@H](C(=O)NCc2cccc(I)c2)[C@@H](O)[C@H]1O
3 | 2.16 |  |  | 1600 | 159 |  |  | O=C(NCC1CC1)[C@H]1S[C@@H](n2cnc3c(NCc4cccc(I)c4)ncnc32)[C@H](O)[C@@H]1O
4 | 35.4 | 35 | 28 |  |  |  |  | O=C(NC1CCCCC1)[C@H]1S[C@@H](n2cnc3c(NCc4cccc(I)c4)ncnc32)[C@H](O)[C@@H]1O
5 | 1.35 | 45 |  |  | 33.1 |  |  | CNc1ncnc2c1ncn2[C@@H]1S[C@H](C(=O)NCC2CC2)[C@@H](O)[C@H]1O
6 | 0.97 | 38 |  |  | 4.83 |  |  | CCNC(=O)[C@H]1S[C@@H](n2cnc3c(NC)ncnc32)[C@H](O)[C@@H]1O
7 | 94.9 | 37 |  |  | 4070 |  |  | Cc1cccc(CNC(=O)[C@H]2S[C@@H](n3cnc4c(NCc5cccc(I)c5)ncnc43)[C@H](O)[C@@H]2O)c1
8 | 1.17 |  |  | 122 | 23.6 |  |  | O=C(NC1CCC1)[C@H]1S[C@@H](n2cnc3c(NCc4cccc(I)c4)ncnc32)[C@H](O)[C@@H]1O
9 |  |  |  |  |  | 475 | 20.2 | CNC(=O)[C@H]1S[C@@H](n2cnc3c(NCc4cccc(I)c4)ncnc32)[C@H](O)[C@@H]1O
10 | 144 | 26 | 25 |  |  |  |  | O=C(NCc1cccc(Cl)c1)[C@H]1S[C@@H](n2cnc3c(NCc4cccc(I)c4)ncnc32)[C@H](O)[C@@H]1O
11 | 113 | 20 | 12 |  |  |  |  | CCOc1ccccc1CNC(=O)[C@H]1S[C@@H](n2cnc3c(NCc4cccc(I)c4)ncnc32)[C@H](O)[C@@H]1O
12 | 0.42 |  |  | 57.6 | 5.4 |  |  | CCNC(=O)[C@H]1S[C@@H](n2cnc3c(NCc4cccc(I)c4)ncnc32)[C@H](O)[C@@H]1O
13 | 1.04 |  |  | 108 | 6.27 |  |  | CNc1ncnc2c1ncn2[C@@H]1S[C@H](C(=O)NC2CCC2)[C@@H](O)[C@H]1O
14 | 31 | 31 | 18 |  |  |  |  | Cc1ccccc1CNC(=O)[C@H]1S[C@@H](n2cnc3c(NCc4cccc(I)c4)ncnc32)[C@H](O)[C@@H]1O
15 | 433 | 38 | 20 |  |  |  |  | O=C(NCCc1ccccc1)[C@H]1S[C@@H](n2cnc3c(NCc4cccc(I)c4)ncnc32)[C@H](O)[C@@H]1O
16 | 2.16 |  |  | 161 | 6.58 |  |  | CNc1ncnc2c1ncn2[C@@H]1S[C@H](C(=O)NC2CC2)[C@@H](O)[C@H]1O
17 | 97 | 23 | 34 |  |  |  |  | COc1ccccc1CNC(=O)[C@H]1S[C@@H](n2cnc3c(NCc4cccc(I)c4)ncnc32)[C@H](O)[C@@H]1O
18 | 0.97 | 27 |  |  | 48.6 |  |  | CNc1ncnc2c1ncn2[C@@H]1S[C@H](C(=O)NC2CCCC2)[C@@H](O)[C@H]1O
19 | 135 | 28 | 15 |  |  |  |  | Cc1ccc(CNC(=O)[C@H]2S[C@@H](n3cnc4c(NCc5cccc(I)c5)ncnc43)[C@H](O)[C@@H]2O)cc1
20 | 61.1 | 44 | 25 |  |  |  |  | O=C(NCc1cccc(F)c1)[C@H]1S[C@@H](n2cnc3c(NCc4cccc(I)c4)ncnc32)[C@H](O)[C@@H]1O
21 | 1.19 | 20 |  |  | 69.5 |  |  | CNC(=O)[C@H]1S[C@@H](n2cnc3c(NC)ncnc32)[C@H](O)[C@@H]1O
22 | 116 |  | 17 |  |  |  |  | O=C(NC(c1ccccc1)c1ccccc1)[C@H]1S[C@@H](n2cnc3c(NCc4cccc(I)c4)ncnc32)[C@H](O)[C@@H]1O

Row | Compound | Ki (Adenosine receptor A3) [nM] | inhibition (Adenosine receptor A2a [1]) [%] | inhibition [2] [%] | Ki (Adenosine receptor A2a [3]) [nM] | Ki (Adenosine receptor A1 [4]) [nM] | Ki (Adenosine receptor A2a [5]) [nM] | Ki (Adenosine receptor A1 [6]) [nM]
23 | O=C(NC1CC1)[C@H]1S[C@@H](n2cnc3c(NCc4cccc(I)c4)ncnc32)[C@H](O)[C@@H]1O | 3.03 |  |  | 15.2 |  |  | 
